In ChEMBL document CHEMBL4819060, “Design, synthesis and assessment of new series of quinazolinone derivatives as EGFR inhibitors along with their cytotoxic evaluation against MCF7 and A549 cancer cell lines” (Bioorg Med Chem Lett, 2021) one finds IC50 and Activity data, which are given here for 13 compounds.

Experiment [1] has as its system MCF7. In words: cells. In kind it is functional, cell-based. As to conditions: Homo sapiens.
Description: Cytotoxicity against human MCF7 cells incubated for 2 to 4 hrs by MTT assay
The test system of experiment [2] is A549. In words: Cytotoxicity against human A549 cells incubated for 2 to 4 hrs by MTT assay. In kind it is functional, cell-based. For orientation: Tetrazolium dyes change colour on reduction, which living cells bring about.
Experiment [3] has as its target Epidermal growth factor receptor (Homo sapiens, UniProt P00533).
Description: Inhibition of EGFR (unknown origin)
A short description of experiment [4]: cells. To be noted: Homo sapiens, PCS-800-011. In kind it is ADME, cell-based.
Description: Cytotoxicity against human PCS-800-011 cells
Experiment [5] relates to MCF7. Put plainly: Induction of apoptosis in human MCF7 cells assessed as late apoptotic cells measured after 24 hrs by Annexin V-FITC/propidium iodide staining based flow cytometry assay (reference value: 0.12%). In kind it is functional. Background: A flow cytometer gives signals particle by particle.
The test system of experiment [6] is MCF7. In words: Induction of apoptosis in human MCF7 cells assessed as early apoptotic cells measured after 24 hrs by Annexin V-FITC/propidium iodide staining based flow cytometry assay (reference value: 0.32%). In kind it is functional.
The subject of experiment [7] is MCF7. Put plainly: Induction of apoptosis in human MCF7 cells assessed as necrotic cells measured after 24 hrs by Annexin V-FITC/propidium iodide staining based flow cytometry assay (reference value: 1.19%). In kind it is functional.
Experiment [8] deals with MCF7. Put plainly: Induction of cell cycle arrest in human MCF7 cells assessed as accumulation of cells at Pre-G1 phase at 4.05 uM after 24 hrs by propidium iodide staining-based flow cytometric analysis (reference value: 1.63%). In kind it is functional.
Experiment [9] concerns MCF7. Put plainly: Induction of cell cycle arrest in human MCF7 cells assessed as accumulation of cells at G2/M phase at 4.05 uM after 24 hrs by propidium iodide staining-based flow cytometric analysis (reference value: 10.49%). In kind it is functional.
For experiment [10], the system named is MCF7. In words: Induction of apoptosis in human MCF7 cells assessed as total apoptotic cells measured after 24 hrs by Annexin V-FITC/propidium iodide staining based flow cytometry assay (reference value: 1.63%). In kind it is functional.
Experiment [11] relates to MCF7. Put plainly: Induction of cell cycle arrest in human MCF7 cells assessed as accumulation of cells at S phase at 4.05 uM after 24 hrs by propidium iodide staining-based flow cytometric analysis (reference value: 36.57%). In kind it is functional.
Experiment [12] deals with MCF7. In words: Induction of cell cycle arrest in human MCF7 cells assessed as accumulation of cells at G0/G1 phase at 4.05 uM after 24 hrs by propidium iodide staining-based flow cytometric analysis (reference value: 52.94%). In kind it is functional.
Experiment [13] relates to MCF7. In words: Induction of cell cycle arrest in human MCF7 cells assessed as accumulation of cells at S phase at 1.74 uM after 24 hrs by propidium iodide staining-based flow cytometric analysis (reference value: 36.57%). In kind it is functional.
Experiment [14] has as its system MCF7. Put plainly: Induction of cell cycle arrest in human MCF7 cells assessed as accumulation of cells at Pre-G1 phase at 1.74 uM after 24 hrs by propidium iodide staining-based flow cytometric analysis (reference value: 1.63%). In kind it is functional.
The test system of experiment [15] is MCF7. In words: Induction of cell cycle arrest in human MCF7 cells assessed as accumulation of cells at G0/G1 phase at 1.74 uM after 24 hrs by propidium iodide staining-based flow cytometric analysis (reference value: 52.94%). In kind it is functional.
In experiment [16] the test system is MCF7. Put plainly: Induction of cell cycle arrest in human MCF7 cells assessed as accumulation of cells at G2/M phase at 1.74 uM after 24 hrs by propidium iodide staining-based flow cytometric analysis (reference value: 10.49%). In kind it is functional.

pIC50: −log10 of the molar value.

Epidermal growth factor receptor, sequence (P00533 whole entry): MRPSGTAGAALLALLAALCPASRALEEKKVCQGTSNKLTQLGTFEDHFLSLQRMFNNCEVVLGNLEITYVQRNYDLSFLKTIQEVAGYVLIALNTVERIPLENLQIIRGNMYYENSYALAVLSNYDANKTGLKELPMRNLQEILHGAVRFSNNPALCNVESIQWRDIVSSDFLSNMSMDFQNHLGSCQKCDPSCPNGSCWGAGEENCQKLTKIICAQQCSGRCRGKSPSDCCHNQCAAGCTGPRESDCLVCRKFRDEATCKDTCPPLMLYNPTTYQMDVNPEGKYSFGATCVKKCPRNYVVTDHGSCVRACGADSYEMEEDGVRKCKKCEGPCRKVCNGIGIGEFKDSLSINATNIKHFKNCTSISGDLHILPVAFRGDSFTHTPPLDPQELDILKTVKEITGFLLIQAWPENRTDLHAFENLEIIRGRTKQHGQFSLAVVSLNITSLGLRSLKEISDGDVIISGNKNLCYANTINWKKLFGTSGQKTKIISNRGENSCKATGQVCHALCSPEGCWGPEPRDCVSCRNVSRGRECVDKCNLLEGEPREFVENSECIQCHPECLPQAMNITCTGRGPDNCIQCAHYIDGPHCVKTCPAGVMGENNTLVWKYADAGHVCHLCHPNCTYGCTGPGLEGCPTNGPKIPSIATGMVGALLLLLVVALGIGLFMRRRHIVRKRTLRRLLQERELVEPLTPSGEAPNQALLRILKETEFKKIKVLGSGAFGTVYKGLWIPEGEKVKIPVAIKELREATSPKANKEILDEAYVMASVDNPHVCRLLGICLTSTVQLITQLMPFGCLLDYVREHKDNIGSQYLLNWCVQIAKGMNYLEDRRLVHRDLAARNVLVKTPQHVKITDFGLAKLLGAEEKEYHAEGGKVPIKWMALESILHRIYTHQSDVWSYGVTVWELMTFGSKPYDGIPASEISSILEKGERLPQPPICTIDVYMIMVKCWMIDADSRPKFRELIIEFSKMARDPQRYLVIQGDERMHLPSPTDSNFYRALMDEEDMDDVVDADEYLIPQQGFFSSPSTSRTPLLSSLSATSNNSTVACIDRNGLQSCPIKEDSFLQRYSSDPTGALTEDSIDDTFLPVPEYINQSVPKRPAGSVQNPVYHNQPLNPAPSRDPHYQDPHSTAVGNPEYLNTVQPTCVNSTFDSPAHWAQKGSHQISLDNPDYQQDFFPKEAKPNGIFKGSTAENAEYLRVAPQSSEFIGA

On to `O=C(CNc1ccc(Cl)cc1Cl)Nn1c(-c2ccccc2)nc2ccccc2c1=O`, for which the pIC50 is 5.36 in experiment [1] and 3.73 in [2].
Taken in the same sequence, the figures for `O=C(CNc1ccccc1)Nn1c(-c2ccccc2)nc2ccccc2c1=O` were 4.82 and 4.88.
Taken in the same sequence, the figures for `O=C(CNc1ccc(Br)cc1)Nn1c(-c2ccccc2)nc2ccccc2c1=O` were 4.82 and 4.60.
Taken in the same sequence, the figures for `COc1ccc(/C=C2/SC(Nn3c(-c4ccccc4)nc4ccccc4c3=O)=NC2=O)cc1OC` were 6.00 and 4.35.
With `O=C1N=C(Nn2c(-c3ccccc3)nc3ccccc3c2=O)S/C1=C/c1ccc(Br)cc1`, the pIC50 in experiment [1] was 5.64; in experiment [2], 4.67.
On to `CCc1ccc(NCC(=O)Nn2c(-c3ccccc3)nc3ccccc3c2=O)cc1`, for which the pIC50 is 5.62 in [1], 6.84 in [3], 4.43 in experiment [4] and 5.68 in [2].
Turning to `CN(C(=O)NCCCl)c1ccc2ncnc(Nc3cccc(Cl)c3)c2c1`, the pIC50 in experiment [3] was 7.09.
For `O=C1N=C(Nn2c(-c3ccccc3)nc3ccccc3c2=O)S/C1=C/c1ccccc1`, the Activity in [5] amounted to 12.16%; in experiment [6], 4.95%; in experiment [7], 9.27%; in experiment [8] it was 26.38%; in experiment [9], 29.17%; in experiment [10], 26.38%. Moreover, the Activity in experiment [11] is on record as 27.88%; in experiment [12], 42.95%. The negative-log IC50 (pIC50) in experiment [1] is 5.39; in experiment [3], 7.18; in experiment [4], 4.35; in experiment [2], 6.14.
The compound `CN(/N=N\c1ccc2ncnc(Nc3cccc(Cl)c3)c2c1)C(=O)OCCl` gave a negative-log IC50 (pIC50) in experiment [3] of 9.41.
`O=C1N=C(Nn2c(-c3ccccc3)nc3ccccc3c2=O)S/C1=C/c1ccc(O)cc1O`: the pIC50 is 5.13 in experiment [1], 6.75 in experiment [3], 4.76 in experiment [4] and 5.49 in experiment [2].
On the same counts, the results for `COc1ccc(/C=C2/SC(Nn3c(-c4ccccc4)nc4ccccc4c3=O)=NC2=O)cc1` are 5.42, 6.87, 4.50 and 5.27.
`O=C(CNc1ccc(Cl)cc1)Nn1c(-c2ccccc2)nc2ccccc2c1=O`: the Activity came out at 23.65% in [5]; 29.47% in experiment [13]; 2.56% in experiment [6]; 11.03% in experiment [7]; 37.24% in experiment [14]; 37.24% in [10]. The Activity in [15] was 34.32%; in [16], 36.21%. Besides, the negative logarithm of the IC50 (pIC50) is 5.76 in experiment [1], 7.09 in experiment [3], 4.29 in [4] and 5.14 in [2].
Consider `COc1ccc(-c2coc3cc(OCC(=O)N/C=C\c4ccc(O)cc4)ccc3c2=O)cc1`, for which, in experiment [3], the pIC50 is 7.48.

By pIC50 is commonly meant the IC50 on a negative log10 scale, so that one unit is a factor of ten.
